# Read-outs that look alike come from different tables or passages of the source.
# Test system: Human lymphocytes
# Assay: PHA-stimulated human lymphocyte proliferation (3H-thymidine incorporation)
# Assay type: cell-based
# Experimental: Immunosuppressive activity of the collected fractions was evaluated in an in vitro standard pharmacological test procedure designed to measure lymphocyte proliferation. The procedure used is briefly described below.
# Human lymphocytes were isolated from blood anticoagulated with heparin. Blood was centrifuged with ficoll at 545 g at room temperature for 20 min. The lymphocyte layer was washed with phosphate buffered saline by centrifugation at 280 g for 10 min and subsequently with the culture medium (430 g, 10 min). The cells were adjusted to a concentration of 10^6 cells/mL with RPMI 1640 medium supplemented with 2 mM glutamine, 100 U/mL penicillin, 100 μg streptomycin and 10% fetal calf serum. For each fraction evaluated, the 1 g/L solution in methanol was diluted with culture medium to provide a concentration of 1 mg/L. The concentration of metabolite in each fraction was determined by HPLC comparison with an external rapamycin standard curve. A solution composed of 100 μL of the cell suspension, containing 5 mg/L PHA, and 100 μL of the metabolite solution were pipetted into the wells of a 96-well plate. The cells were incubated for 44 h at 37° C. in a 5% CO2 atmosphere. After addition of 1 μCi ^3 H-thymidine/well the cells were incubated for additional 4.5 h. […] The thawed cells were harvested and ^3 H-thymidine incorporation was determined by liquid scintillation counting.
Compound,"IC50 (lymphocyte proliferation, human lymphocytes from heparin blood, PHA, incubated 44 h at 37° C., then 3H-thymidine 4.5 h, read-out: IC50)","IC50 (Homo sapiens, Lymphocyte)"
"CO[C@H]1C[C@@H]2CC[C@@H](C)[C@@](O)(O2)C(=O)C(=O)N2CCCC[C@H]2C(=O)O[C@H]([C@H](C)C[C@@H]2CC[C@@H](O)[C@H](O)C2)CC(=O)[C@H](C)/C=C(\C)[C@@H](O)[C@@H](OC)C(=O)[C@H](C)C[C@H](C)/C=C/C=C/C=C/1C [Example 1, 41-O-Desmethyl rapamycin]",1000 pM,–
"CO[C@H]1C[C@@H]2CC[C@@H](C)[C@@](O)(O2)C(=O)C(=O)N2CCCC[C@H]2C(=O)O[C@H]([C@H](C)C[C@@H]2CC[C@@H](O)[C@H](OC)C2)CC(=O)[C@H](C)/C=C(\C)[C@@H](O)[C@@H](OC)C(=O)[C@H](C)C[C@H](C)/C=C/C=C/C=C/1C [Rapamycin, rapamycin]",–,100 pM

# Source: patent US5776943A, “Rapamycin metabolites” (American Home Products Corporation, priority 1991, dated 1998)
